Test results as given in patent US20260327255A1, “LIGAND-DIRECTED COVALENT MODIFICATION OF AMINO ACID SIDE CHAINS USING CYCLIC IMINE MANNICH ELECTROPHILES” (Purdue Research Foundation, priority 2022, published 2026).
“Also recorded” adds a separate entry of the source. One block for each molecule: values may come before it.

How the values were obtained:
[1] = Aqueous solubility; format: physicochemical
[2] = Effect of thiols on tyrosine labeling with imine 1; details: 5 mM imine, 100 mM Tyr, 5 mM cysteine, vs control
Method: Cyclic imine 1 (5 mM) was incubated with 100 mM acetyl tyrosine methyl amide and 5 mM […] (in the presence of 5 mM TCEP). Reaction yield was quantified based on UV integrations of Mannich product at 4 h, 9 h, 17 h, 24 h, and 32 h. Imine consumption rate was quantified based on the UV integration of Mannich product at 4 h, 9 h, 17 h, 24 h, and 32 h.
Thiol addition to the imine is reversible, yet this reaction may limit the desired reactivity of imines to tyrosines in cellular contexts where glutathione concentrations can be 1-10 mM (Meister et al. J. Biol. Chem. 1988, 263(33), 17205-17208; Forman et al. Mol. Aspects Med. 2009, 30(1-2), 1). To evaluate this reversibility, the pre-formed thioaminal product of 1 with N-acetyl-cysteine methyl amide was treated with either glutathione (1 M) or Ac-Tyr-NHMe (100 mM). […] To evaluate potential effects of cellular thiols on tyrosine labeling rate, the cyclic imine-Tyr reaction (at 5 mM and 100 mM, respectively) was evaluated over time in the presence of cysteine (5 mM) (FIG. 9).

[3] = Reaction of imine 1 with indole-3-butyrate (tryptophan mimic)
Method: (§1) Reactions were conducted under pseudo first order conditions with an excess of one reactant. The reduction in the concentration of the limiting reactant A was measured at various time points by HPLC analysis. Rates of imine 1 with N-Ac-Tyr-NMe, indole-3-butyric acid, and 1H-pyrrole-1-propionic acid and of imine 2 with N-Ac-Tyr-NMe were measured.
(§2) Reaction of imine 1 (5 mM) with (A) N-Ac-Tyr-NHMe (100 mM) or (B) indole-3-butyrate (100 mM) at indicated time points.
(§3) Reaction of (A) imine 1 (5 mM) with N-Ac-Tyr-NHMe (100 mM) at 37° C. or (B) at room temperature. (C) imine 2 (5 mM) with N-Ac-Tyr-NHMe (100 mM) at 37° C. (D) imine 1 (5 mM) with indole-3-butyrate (100 mM) (E) imine 1 (10 mM) with 1 mM 1H-pyrrole-1-propionate (F) iminium 6 (5 mM) with N-Ac-Tyr-NHMe (100 mM) at 37° C. at pH 7 (G) iminium 6 (5 mM) with N-Ac-Tyr-NHMe (100 mM) at 37° C. at pH 3 at indicated time points.

[4] = Reaction of cyclic imines with N-acetyl-L-tyrosine methylamide (HPLC/LC-MS); details: for reaction half-life (t1/2): 5 mM imine, 100 mM Ac-Tyr-NHMe; for reaction half-life (t1/2) / reactivity to tyrosine: PBS pH 7, 37° C.; for second-order rate constant: pseudo-first order conditions; for reactivity to tyrosine: in words, Ac-Tyr-NHMe
Method: The reaction was monitored using liquid chromatography/mass spectrometry (LC/MS).
as §1, §2, §3
Several cyclic imines (5 mM) were incubated with a simple tyrosine analog N-acetyl-L-tyrosine methylamide (Ac-Tyr-NHMe) in PBS pH 7 at 37° C. (FIGS. 2-3). The reactivity was quantitated by UV integration on HPLC with liquid chromatography/mass spectrometry (LC/MS) confirmation of reaction product identity (FIG. 4). Under these pseudo-first order reaction conditions, reaction half-lives and second-order rate constants were determined.

[5] = molecular target: T1, recombinant CBX8 chromodomain (ChD) (Homo sapiens, UniProt Q9HC52); assay: Labeling of CBX8 chromodomain with imine 1 (mass spectrometry); format: binding; details: 50 mM imine, 10 μM CBX8 ChD, PBS pH 7, 0.02% Tween 20, room temperature overnight
T1 construct: expected mass of CBX8 ChD 8792 Da
T1 sequence (Q9HC52 8-69 limits assumed): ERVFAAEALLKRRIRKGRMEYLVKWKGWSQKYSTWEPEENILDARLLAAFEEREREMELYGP
Method: (§4) To confirm reactivity and selectivity with a peptide context, imine 1 (50 mM) was incubated with the tyrosine-containing 8-mer peptide angiotensin II ([…]) (10 mM) (FIG. 10). The combined yield of mono-labeled and di-labeled angiotensin II was ~45% as quantified by LC/MS. Cyclic imine 1 (50 mM) was also incubated with a small protein (recombinant CBX8 chromodomain (ChD), which contains multiple tyrosines and tryptophans; 10 μM in PBS buffer (pH=7; 0.02% Tween 20)) at room temperature overnight. With overnight incubation, two to three additions of the imine were observed by mass spectrometry.

[6] = Stability of cyclic imines in aqueous media (LC/MS); format: physicochemical; details: 96-hours incubation in PBS, 0.1M HCl, 0.1M NaOH
Method: To validate the stability of cyclic imines as covalent warheads, imines 1-4 were evaluated by LC/MS after 96-hours incubation in PBS, 0.1M HCl, and 0.1M NaOH (Table 1).

[7] = tested on: angiotensin II; assay: Labeling of angiotensin II with imine 1 (LC/MS); details: 50 mM imine 1, 10 mM angiotensin II, 16 hours
Method: UV trace of reaction mixture of compound 1 (cyclic imine 1) with angiotensin II. […] (Mono cyclic imine-angiotensin II conjugate peak at 2 min): calc. [M+H]^+: 1199.2, found [M+H]^+: 1199.3, [M+2H]^2+: 600.3, [M+3H]^3+: 400.6. (Di-cyclic imine-angiotensin II conjugate peak at 2.1 min): calc. [M+H]^+: 1351.2, found [M+H]^+: 1351.8, [M+2H]^2+: 676.4, [M+3H]^3+: 451.0. (Unmodified angiotensin II (8-mer) peak at 2.2 min): m/z calc. [M+H]^+: 1047.2, found [M+H]^+: 1047.2, [M+2H]^2+: 524., [M+3H]^3+: 350.
as §4

[8] = Amino acid mimetic reactivity, LC/MS: indole (tryptophan mimic); details: 100 mM, PBS pH 7, 37° C., 24 h
Method: (§5) Cyclic imine 1 was incubated with 100 mM compounds in PBS (pH 7) at 37° C. for 24 hours and then analyzed by LC/MS. (A) Compounds include β-mercaptoethanol, imidazole, isopropanol, n-butylamine, propionic acid, 3-methyl indole, and N-ethyl pyrrole (pyrrole-lysine). UV LC/MS traces for (B) β-mercaptoethanol, (C) 3-methyl indole, and (D) N-ethyl pyrrole. LR-ESI-MS: imine-thiol product m/z calc. for [M+H]^+ 231.1; found: 231.2. Imine-indole product m/z calc. for [M+H]^+: 284.2; found: 284.2. Imine-pyrrole product m/z calc. for |M+H|^+: 248.2; found: 248.2.
(§6) To assess the selectivity to other amino acids, we tested compounds mimicking amino acid side chain functional groups, including β-mercaptoethanol (cysteine), imidazole (histidine), isopropanol (serine/threonine), n-butylamine (lysine), propionic acid (aspartic acid/glutamic acid), 3-methyl indole (tryptophan), and N-ethyl pyrrole (pyrrole-lysine). […] Conjugation to thiols was expected based on previous reports (Minakawa et al. J. Org. Chem. 2008, 73(21), 8669-8672; Cavaca et al. Mol. 2022, 27(5), 1673).

[9] = Amino acid mimetic reactivity, LC/MS: thiol (cysteine mimic); details: 100 mM, PBS pH 7, 37° C., 24 h
Method: as §5, §6

[10] = Amino acid mimetic reactivity, LC/MS: pyrrole (pyrrole-lysine mimic); details: 100 mM, PBS pH 7, 37° C., 24 h
Method: as §5, §6

[11] = Reaction of imine 1 with 1H-pyrrole-1-propionate (pyrrole-Lys mimic)
Method: as §1, §3
We also tested 1 with N-ethyl pyrrole as a mimic of pyrrolated lysine, a lesser-known post-translational modification (Miyashita et al. Sci. Rep. 2014, 4, 5343; Chikazawa et al. J. Biol. Chem. 2020, 295(22), 7697-7709). […] Previous work with N-pyrrolyl alanine derivatives has shown fast and selective Pictet-Spengler reactions with aldehyde-containing biomolecules (Pomplun et al. Angew. Chemie Int. Ed. 2019, 58(11), 3542-3547).^50 Under conditions of 10 mM cyclic imine 1 with 1 mM 1H-pyrrole-1-propionate (as a soluble pyrrole-Lys mimic), we determined a second order rate constant of 5.9×10^−2 M^−1 s^−1 (FIGS. 3 and 5).

[12] = Hydrolysis of aromatic ester imine in water / PBS; format: physicochemical

Compound: Cc1c[nH]c2ccccc12 [3-methyl indole]
aqueous solubility [1]: poor aqueous solubility

Compound: O=C1C=NC2CCCCC2N1 (stereo not shown) [Compound 1]
effect of cysteine on tyrosine-imine reaction rate [2]: slightly slowed the reaction rate
fold lower rate constant than to tyrosine ([3]; indole-3-butyrate vs tyrosine): 2 fold
second order rate constant (k2) ([3]; indole-3-butyrate, 37° C.): 0.00011 M⁻¹ s⁻¹
reaction half-life (t1/2) [4]: 8 ± 0.3 h
second-order rate constant ([4]; 37° C.): 0.00024 M⁻¹ s⁻¹
second-order rate constant ([4]; R.T.): 0.00015 M⁻¹ s⁻¹
number of additions of the imine [5]: two to three
stability (in words) [6]: stable under all conditions
combined yield of mono-labeled and di-labeled angiotensin II [7]: ~ 45%
conjugate formation with 3-methyl indole [8]: Stable conjugates; also recorded: multiple products
conjugate formation with β-mercaptoethanol [9]: Stable conjugates
conjugate formation with N-ethyl pyrrole [10]: Stable conjugates
second order rate constant ([11]; 10 mM imine 1, 1 mM 1H-pyrrole-1-propionate): 0.059 M⁻¹ s⁻¹
increase in rate constant relative to Tyr ([11]; 1H-pyrrole-1-propionate vs Tyr): ~ 200 fold

Compound: O=C1C=NC2CCCCC2O1 (stereo not shown) [Compound 2]
reaction half-life (t1/2) [4]: 0.667 h
second-order rate constant ([4]; 37° C.): 0.0029 M⁻¹ s⁻¹
increase in rate constant relative to 1 ([4]; relative to imine 1, Ac-Tyr-NHMe): ~ 10 fold
stability (in words) [6]: hydrolyzed under basic conditions

Compound: C#CCn1c(=O)cnc2ccccc21 [Compound 5]
reactivity to tyrosine [4]: unreactive

Compound: C1=NCCc2ccccc21 [Compound 9]
reactivity to tyrosine [4]: limited

Compound: CC1=NCCC1 [Compound 10]
reactivity to tyrosine [4]: no

The next lines start with results.

degraded at 1 h ([12]; PBS, pH 7, within an hour): 70%
stability in water ([12]; water): stable in water
Compound: O=c1cnc2ccccc2o1 [Compound 3]
reactivity to tyrosine [4]: did increase the rate of Mannich addition; also recorded: low intrinsic reactivity
stability (in words) [6]: hydrolyzed under basic conditions; also recorded: unstable in PBS

stability (in words) [6]: stable under all conditions
Compound: Oc1cnc2ccccc2n1 [Compound 4]
reactivity to tyrosine [4]: unreactive
